Data published in ChEMBL document CHEMBL1142978, “Probing the anticancer activity of nucleoside analogues: a QSAR model approach using an internally consistent training set” (J Med Chem, 2007).
Where a SMILES comes first, the peptide text is derived from it.

experiment: Cytotoxicity against mouse L1210/0 cells after 48 hrs; format: cell-based; conditions: Mus musculus, L1210/0, 48 h

Question: For `COC1=C(OC)C(O)(CCn2cnc3c(Cl)ncnc32)OC1=O` (centres undefined), which IC50 is on record?
Answer: Its IC50 is greater than 200 µM.

Question: For `CCCC/C=C\c1cn([C@H]2C[C@H](O)[C@@H](CO)O2)c(=O)[nH]c1=O`, which IC50 is on record?
Answer: The IC50 was greater than 200 µM.

Question: Which IC50 does the source give for `O=C1O/C(=C\Cn2cc(Cl)c(=O)[nH]c2=O)C(OCc2ccccc2)=C1OCc1ccccc1` here?
Answer: Its IC50 is 12.2 µM.

Question: Which IC50 does the source give for `Nc1nc(=O)ccn1COCCO` here?
Answer: Its IC50 is greater than 200 µM.

Question: With `O=c1[nH]c(=O)n(COCCO)cc1/C=C/Br` as the compound, how does the IC50 read?
Answer: Its IC50 is greater than 200 µM.

Question: For `CC1(C)[C@@H](CO)CC[C@@]1(C)Cn1cc(I)c(=O)[nH]c1=O`, which IC50 is on record?
Answer: The IC50 was greater than 200 µM.

Question: With `O=c1ccn(CC2CCC(CO)C2)c(=O)[nH]1` (centres undefined) as the compound, how does the IC50 read?
Answer: Its IC50 is greater than 200 µM.

Question: With `CC(=O)OC(C)Cn1cnc2c(Cl)nc(N)nc21` (centres undefined) as the compound, how does the IC50 read?
Answer: The IC50 was greater than 200 µM.

Question: For `O=c1ccn(COCCO)c(=O)[nH]1`, which IC50 is on record?
Answer: Its IC50 is greater than 200 µM.

Question: For `O=c1[nH]c(=O)n([C@H]2C[C@H](O)[C@@H](CO)O2)cc1O`, which IC50 is on record?
Answer: Its IC50 is greater than 200 µM.

Question: Which IC50 does the source give for `Nc1ccn([C@@H]2O[C@H](CO)[C@@H](O)[C@@H]2O)c(=O)n1` [CYTARABINE] here?
Answer: The IC50 was 0.7 µM.

Question: With `CC1(C)[C@@H](Cn2nnc3c(Cl)nc(N)nc32)CC[C@@]1(C)CO` as the compound, how does the IC50 read?
Answer: The IC50 was 44.6 µM.

Question: With `CSc1cn([C@H]2C[C@H](O)[C@@H](CO)O2)c(=O)[nH]c1=O` as the compound, how does the IC50 read?
Answer: The IC50 was greater than 200 µM.

Question: Which IC50 does the source give for `O=c1[nH]c(=O)n([C@@H]2CCC[C@H]2CO)cc1I` here?
Answer: Its IC50 is greater than 200 µM.

Question: With `O=c1[nH]c(=O)n([C@H]2C[C@H](O)[C@@H](CO)O2)cc1C#CCCCO` as the compound, how does the IC50 read?
Answer: Its IC50 is greater than 200 µM.

Question: For `C[C@H](O)C1CC(CCn2cnc3c(=O)[nH]cnc32)C1(C)C` (some centres undefined), which IC50 is on record?
Answer: Its IC50 is greater than 200 µM.

Question: For `COc1nc(I)nc2c1ncn2COCCO`, which IC50 is on record?
Answer: The IC50 was greater than 200 µM.

Question: For `CO[C@@H]1OC(n2cc(F)c(=O)[nH]c2=O)[C@H](OC(C)=O)[C@@H](OC(C)=O)[C@H]1F` (some centres undefined), which IC50 is on record?
Answer: Its IC50 is 34 µM.

Question: For `CCCCCC(=O)O[C@@H]1[C@H](OC(=O)CCCCC)CO[C@@H](OC)[C@@]1(F)n1ccc(=O)[nH]c1=O`, which IC50 is on record?
Answer: Its IC50 is 40 µM.

Question: For `O=C1OC(=CCn2cnc3c(-n4cccc4)ncnc32)C(OCc2ccccc2)=C1OCc1ccccc1`, which IC50 is on record?
Answer: The IC50 was 110 µM.

Question: For `Cc1cn([C@@H]2O[C@H](CO)[C@@H](O)[C@@H]2O)c(=O)[nH]c1=O`, which IC50 is on record?
Answer: Its IC50 is 24.4 µM.

Question: With `OC[C@H]1C[C@@H](Cn2cnc3c(NC4CC4)ncnc32)c2ccccc21` as the compound, how does the IC50 read?
Answer: The IC50 was greater than 200 µM.

Question: With `COC1=C(OC)C(=CCn2cnc3c(N)ncnc32)OC1=O` as the compound, how does the IC50 read?
Answer: Its IC50 is greater than 200 µM.

Question: Which IC50 does the source give for `C#COc1cn([C@H]2C[C@H](O)[C@@H](CO)O2)c(=O)[nH]c1=O` here?
Answer: Its IC50 is greater than 200 µM.

Question: With `CC(=O)OC(C)Cn1cnc2c(N)nc(I)nc21` (centres undefined) as the compound, how does the IC50 read?
Answer: Its IC50 is greater than 200 µM.

Question: With `OC[C@@H]1CCC[C@H]1n1cnc2c(O)ncnc21` as the compound, how does the IC50 read?
Answer: Its IC50 is greater than 200 µM.

Question: For `C[C@H](O)C1CC(Cn2nnc3c(=O)[nH]cnc32)C1(C)C` (some centres undefined), which IC50 is on record?
Answer: The IC50 was greater than 200 µM.

Question: For `C=CC#Cc1cn([C@H]2C[C@H](O)[C@@H](CO)O2)c(=O)[nH]c1=O`, which IC50 is on record?
Answer: Its IC50 is greater than 200 µM.

Question: For `CC1(C)[C@@H](Cn2cnc3c(N)nc(N)nc32)CC[C@@]1(C)CO`, which IC50 is on record?
Answer: Its IC50 is greater than 200 µM.

Question: Which IC50 does the source give for `Nc1nc2c(nc(N)n2COCCO)c(=O)[nH]1` here?
Answer: Its IC50 is greater than 200 µM.

Question: Which IC50 does the source give for `COc1ncnc2c1ncn2C[C@@H]1C[C@H](O)c2ccccc21` here?
Answer: The IC50 was greater than 200 µM.

Question: With `CC(C)C[C@H](NC(=O)[C@@H]1CCCN1)C(=O)NCC(N)=O` (H-Pro-Leu-Gly-NH2) as the compound, how does the IC50 read?
Answer: Its IC50 is greater than 200 µM.

Question: For `O=c1[nH]cc(F)c(=O)[nH]1` [FLUOROURACIL], which IC50 is on record?
Answer: The IC50 was 0.31 µM.

Question: With `Nc1nc(O)c2nnn([C@H]3CCCC[C@H]3CO)c2n1` as the compound, how does the IC50 read?
Answer: The IC50 was greater than 200 µM.

Question: With `COC1=C(OC)/C(=C/C(n2cnc3c(N)ncnc32)P(O)(=S)OC)OC1=O` (centres undefined) as the compound, how does the IC50 read?
Answer: The IC50 was greater than 200 µM.

Question: With `CCCc1cn([C@H]2C[C@H](O)[C@@H](CO)O2)c(=O)[nH]c1=O` as the compound, how does the IC50 read?
Answer: Its IC50 is greater than 200 µM.

Question: Which IC50 does the source give for `O=c1[nH]c(=O)n(CC2CCC(CO)C2)cc1I` (centres undefined) here?
Answer: The IC50 was greater than 200 µM.

Question: With `Nc1nc(O)c2ncn([C@H]3CCCC[C@H]3CO)c2n1` as the compound, how does the IC50 read?
Answer: Its IC50 is greater than 200 µM.

Question: With `CS(=O)(=O)Cc1cn([C@H]2C[C@H](O)[C@@H](CO)O2)c(=O)[nH]c1=O` as the compound, how does the IC50 read?
Answer: The IC50 was greater than 200 µM.

Question: With `O[C@H]1C[C@@H](Cn2cnc3c(Cl)ncnc32)c2ccccc21` as the compound, how does the IC50 read?
Answer: Its IC50 is greater than 200 µM.

Question: With `Nc1nc2c(ncn2[C@@H]2O[C@H](CO)[C@H](F)[C@@H]2O)c(=O)[nH]1` as the compound, how does the IC50 read?
Answer: Its IC50 is 17.5 µM.

Question: For `O=c1[nH]cnc2c1nnn2[C@@H]1C[C@H](CO)[C@@H](CO)[C@H]1CO`, which IC50 is on record?
Answer: The IC50 was greater than 200 µM.

Question: Which IC50 does the source give for `CC#Cc1cn([C@H]2C[C@H](O)[C@@H](CO)O2)c(=O)[nH]c1=O` here?
Answer: The IC50 was greater than 200 µM.

Question: With `COC1=C(OC)/C(=C/C(n2cnc3c(Cl)ncnc32)P(=O)(OC)OC)OC1=O` (centres undefined) as the compound, how does the IC50 read?
Answer: The IC50 was 37.7 µM.
